# From PMC12040169 (PLOS Biology, 2025)
# Assay: in vitro
# Conditions: human, hela cells
row,SMILES,"viability at 28.5 h, 10 µM [%]"
1,O=P(O)(O)CCCc1ccccc1 [CBK012021],80.5

# Same assay, conditions: human, hela cells, % viability
row,SMILES,"viability at 28.5 h, 10 µM [%]"
1,COc1ccc(CCN2C(=O)CC(C(=O)O)S/C2=N\c2ccccc2)cc1 (centres unmarked) [CBK286606],90.6
2,O=c1ccnc(SCc2cccc(Cl)c2)[nH]1 [CBK288123],100
3,O=C(O)CCC(=O)Nc1ccc(C(=O)N2CCCc3ccccc32)cc1 [CBK269118],114
4,O=C(O)CNC(=O)Cn1ccc2ccc(OCc3ccccc3)cc21 [CBK286644],85.9
5,COc1cc([N+](=O)[O-])ccc1-c1ccc(/C=c2\sc3nc4cc(Br)cnc4n3c2=O)o1 [CBK262579],103
6,Cc1ccc2c(c1)cc(C(=O)N1CCOC(C(=O)N3CCCCCC3)C1)n2C (centres unmarked) [CBK286032],109
7,Cn1cc(C(c2ccc(OCC(=O)O)cc2)c2cn(C)c3ccccc23)c2ccccc21 [CBK266403],94.5
8,O=C(CCn1cnnn1)N1C[C@H]2CC[C@@H]1CN(Cc1cccnc1)C2 [CBK307029],88.9
9,CC(C)NC(=O)Cn1c(-c2cccs2)cc2cccnc21 [CBK282454],97.3
10,CCc1nc2c(OCCCN(C)S(C)(=O)=O)cccn2c1N(C)C(=O)c1ccco1 [CBK147435],95
11,COc1ccc(-c2noc([C@@H]3C[C@H](NC(=O)c4ccc(F)cc4)CN3C)n2)cc1 [CBK288861],118
12,O=C(Cc1c[nH]c(=O)[nH]c1=O)N1CCCCC1c1nc2cc(F)ccc2[nH]1 (centres unmarked) [CBK291108],104
13,COC(=O)COc1ccc(S(=O)(=O)NCc2ccc3c(c2)OCO3)cc1C [CBK267172],90.3
14,FC(F)(F)c1cc(-c2cn3ccnc3c(N3CCOCC3)n2)cc(C(F)(F)F)c1 [CBK066396],93.4
15,CCOC(=O)N1CCC(NS(=O)(=O)c2c(C)noc2C)CC1 [CBK045465],102
16,CCOC(=O)c1cc2c3ccccc3n(CC)c2nc1N [CBK100822],94
17,Nc1nc(-c2ccc(F)cc2)c2c(n1)-c1ccccc1C2=O [CBK287881],114
18,c1ccc2c(c1)nc1n2CCN1CCN1CCCCC1 [CBK278283C],98.5
19,CCn1cc(S(=O)(=O)NCc2ccc3[nH]c4c(c3c2)CCCC4)cn1 [CBK307225],100
20,O=[N+]([O-])c1ccc(CN2CCC(Oc3nccnc3OCCN3CCOCC3)CC2)cc1 [CBK082923T],91
21,O=C(Cc1ccccn1)N1CCC(c2cccc(Cc3ccc(C(F)(F)F)cc3)n2)CC1 [CBK286224],101
22,Cc1ccc(Cl)cc1N1CCN(CC(O)COCc2ccc3c(c2)OCO3)CC1 (centres unmarked) [CBK278308C],106

row,SMILES,"viability at 28.5 h, 10 µM [%]"
1,COc1ccccc1CCCNC(=O)c1ccc2nc(C)[nH]c2c1 [CBK283258],84.7
2,O=C(Nc1cccc2ccccc12)C1CCC(C(=O)Nc2cccc3ccccc23)CC1 (centres unmarked) [CBK268706],81.9
3,CC(=O)Nc1cccc(NC(=O)CSc2ncnc3c2nnn3C)c1 [CBK287829],91.9
4,c1ccc2sc(-c3cc(N4CCN(CCN5CCCC5)CC4)ncn3)cc2c1 [CBK091172],89.3
5,COc1ccc(C(=O)C2=C(O)C(=O)N(CCN3CCNCC3)C2c2ccccc2F)cc1 (centres unmarked) [CBK264666],99.4
6,CC(C)NC1=NC(=O)C(CC(=O)Nc2ccccc2)S1 (centres unmarked) [CBK013880],90.7
7,Cc1nn(C(C)CC(=O)NCCN2CCC(C)CC2)c(C)c1Cl (centres unmarked) [CBK281558],90.2
8,CC(C)(C)OC(=O)Nc1ccc(Nc2cc(-c3ccc(F)c(F)c3)ncn2)cc1 [CBK091143],90.1
9,O=C(O)C1CCC(CNS(=O)(=O)c2ccc(Br)cc2)CC1 (centres unmarked) [CBK027994],86.1
10,O=C(O)c1ccc(NC2CCS(=O)(=O)C2)cc1 (centres unmarked) [CBK287168],82.3
11,CCOC(=O)Cn1ncc2c3sc(C)cc3n(CC)c2c1=O [CBK284185],87.1
12,COc1cc(CNC2CCCc3c2cnn3C)cc(OC)c1 (centres unmarked) [CBK304306C],82.4
13,O=C(CC1S/C(=N/N=C/c2ccc(-c3ccc(Br)cc3)o2)NC1=O)Nc1ccccc1 (centres unmarked) [CBK264499],106
14,CN1C(=O)c2ccc(NS(C)(=O)=O)cc2C1=O [CBK038158],104
15,N#CCCn1cc(C(=O)N2CCOCC2)c(-c2ccc(F)cc2)n1 [CBK306189],95.5
16,CC(C)(C)C(=O)NC(=S)Nc1ccc(Cc2ccncc2)cc1 [CBK269717],91.5
17,COc1cccc2c(O)cnnc12 [CBK026139],87.2
18,Cc1csc(C(Cc2ccsc2)NC(=O)CCc2ccno2)n1 (centres unmarked) [CBK285099],100
19,CCOc1ccc(Cl)cc1CN(C)C(=O)NCC(c1ccco1)N(C)C (centres unmarked) [CBK307013],88
20,O=C(NCCCN1CCc2ccccc2C1)C1CC1c1ccco1 (centres unmarked) [CBK305257],91.8
21,CCCCNC(=S)N[C@H]1CC[C@@]2(Cc3ccc(OC)cc3)CCN(C)[C@H]2C1 [CBK004258],108
22,O=C(C[C@@H]1CCNC[C@@H]1Cc1cc(-c2ccccc2)on1)NC1CC1 [CBK289146],88

row,SMILES,"viability at 28.5 h, 10 µM [%]"
1,O=C(C1=C(O)C(=O)N(Cc2cccnc2)C1c1cccnc1)c1ccccc1 (centres unmarked) [CBK264522],99.5
2,COC(=O)CCc1ccc(S(=O)(=O)N2CCCN(Cc3cccc4c3OCO4)CC2)cc1 [CBK062993],88.8
3,Fc1ccc(OCCNC2CCc3[nH]c4ccccc4c3C2)cc1 (centres unmarked) [CBK107791],83.7
4,Nc1nonc1C(=O)NCCNc1ccc([N+](=O)[O-])cc1 [CBK262577],104
5,CNCc1cccc(OC)c1OCc1ccccc1F [CBK269949C],99.2
6,O=C(Nc1ccccc1C(=O)c1ccccc1)c1ccccn1 [CBK288150],89.1
7,COCc1cccc(-c2nccnc2OC(c2ccccc2)c2ccccc2)c1 [CBK106960],101
8,COc1ccc(S(=O)(=O)NCCSCc2cccc(C)c2)cc1Cl [CBK268477],100
9,Cc1ccc(OCc2ccccc2)c(C(CCN(C(C)C)C(C)C)c2ccccc2)c1 (centres unmarked) [CBK017906],108
10,CCCCSc1nc(N)cc(N2CCCC(C(=O)N3CCOCC3)C2)n1 (centres unmarked) [CBK307210],75.2
11,CC#CC(=O)N1CCCC(Cc2ccc(F)cc2F)(C(=O)OCC)C1 (centres unmarked) [CBK307051],111
12,Cc1cccn2cc(CC(=O)NC3(C#N)CCCCC3)nc12 [CBK306252],95.2
13,Cc1cc(C)cc(N(CCC#N)C(=O)CSc2nnc[nH]2)c1 [CBK296955],101
14,Cc1c(C)n(C)c2ccc(C(=O)NCCC(=O)N3CCOCC3)cc12 [CBK281669],65.8
15,CCC(C(=O)Nc1ccc(OC(C)=O)cc1C(=O)O)c1ccccc1 (centres unmarked) [CBK269685],94.5
16,O=C1COc2ccccc2C/C=C/CC2(CCN(C(=O)CCc3cccnc3)CC2)CN1 [CBK292127],90.8
17,CC(=O)Nc1ccccc1NC(=O)CN(C)S(=O)(=O)c1ccc(Cl)cc1 [CBK267373],93.2
18,CC(=O)c1cc(CN2CCCOC(Cn3cccn3)C2)cs1 (centres unmarked) [CBK307365],84.3
19,CC(C)(O)Cc1ccccc1C(=O)NC1CCCCCC1 [CBK010502],81.7
20,COCc1nc2ccccc2n1CC(=O)N1CCC(c2ccccc2)C1 (centres unmarked) [CBK282211],97.1
21,O=C(Cn1c(NCCCO)nc2ccccc21)c1cccs1 [CBK023894B],96.5
22,CC(=O)N1CCC[C@H]2NC(=O)CNC(=O)C3(C/C=C/C[C@H]21)CCN(CC1CCC1)CC3 [CBK292129],103

row,SMILES,"viability at 28.5 h, 10 µM [%]"
1,O=C(CCSc1ccc(Cl)cc1)NCCc1ccccc1 [CBK263800],86.4
2,CC(NC(=O)CC1CCN(Cc2cccc(C(F)(F)F)c2)CC1)c1nc2ccccc2[nH]1 (centres unmarked) [CBK285952],104
3,c1ccc2c(c1)CCCN2CCc1c[nH]c2ccccc12 [CBK138330],97.3
4,O=C(O)CCc1ccc(-c2cccs2)n1NC(=O)c1ccc(Cl)cc1 [CBK264738],95.5
5,COc1ccc(-n2cc(-c3ccccc3C(F)(F)F)nn2)cc1OC [CBK112965],89.4
6,CCOC(=O)C1CCCCN1Cc1ccc(OC)c(O)c1 (centres unmarked) [CBK261560],98.3
7,O=C(Nc1ccccc1)N[C@H]1CO[C@H]2[C@@H]1OC[C@H]2OCc1ccccc1 [CBK289488],109
8,COc1ccc(-c2cc(C(=O)Nc3cccc(C(=O)O)c3)cnc2-c2ccc(F)cc2)cn1 [CBK038064],91.3
9,Cc1c(NC(=O)C2CCN(c3ccccc3Cl)C2)nnn1C (centres unmarked) [CBK306263],90.7
10,Cc1cc(C[C@@H]2CCC[C@H]2NCc2cc(Cl)ccc2O)on1 [CBK282997],103
11,O=C1N[C@@H]2CCN(C(=O)C3CC3)[C@@H]2C(=O)N1c1ccc(F)cc1 [CBK289324],99.6
12,O=C(NO)Nc1cc(Cl)cc(Cl)c1 [CBK016430],109
13,Cc1ncc(CN2CCCC(O)(c3ccc(F)cc3)CC2)n1C (centres unmarked) [CBK284836],89.6
14,COC(=O)c1c(NC(=S)NCCn2cc(Br)cn2)sc2c1CCC(C)C2 (centres unmarked) [CBK266886],89.8
15,CS(=O)(=O)c1ccc(-c2ccc(C(=O)NCc3ccccc3)cn2)cc1 [CBK158885],89.2
16,Nc1nc(CSc2nnc(-c3ccco3)n2-c2ccccc2)cs1 [CBK269693],97.9
17,COC(=O)[C@H]1CCc2ccccc2N1C(=O)C(C)C [CBK285474],100
18,Cc1ncccc1COC(=O)NCCc1ccccn1 [CBK200137],104
19,CC(C)(C)C(=O)N1CCC(n2nc(C3CC3)ccc2=O)CC1 [CBK284242],84.6
20,CCOC(=O)c1cnc2ccc(Cl)cc2c1N1CCOCC1 [CBK307627],99.2
21,COc1cc(/C=C2/S/C(=N\c3ccccc3)NC2=O)ccc1OCc1ccccc1[N+](=O)[O-] [CBK262165],88.4
22,Cc1ccsc1-c1nc2cnccn2c1NC1CCCC1 [CBK283524],93.9
